Results from article PMC6361113 (Cancer chemotherapy and pharmacology, 2017).
Where “and” joins values, the source holds several entries; their conditions need not be identical. Equal entries are not always repeated. Where two headings read alike, the source gives them in different places.

Experiments:
[1] = cited from earlier work
[2] = cited from earlier work; remark: listed apart in the source
[3] = cited from earlier work; remark: listed apart in the source
[4] = type: in vivo, human
blood/PMBCs = details: in vitro; cited from earlier work
[5] = cited from earlier work; remark: listed apart in the source
[6] = cited from earlier work; remark: listed apart in the source
[7] = olaparib tablets 200 mg, noncompartmental; cited from earlier work
[8] = Population pharmacokinetic; type: in vivo, human
[9] = cited from earlier work; remark: listed apart in the source
[10] = 400 mg capsule dose, estimated range
[11] = 400 mg capsule dose, typical averages
[12] = patients with CLcr = 50–80 mL/min, prescribing information
[13] = prescribing information, 400 mg BID capsules
[14] = olaparib monotherapy, clinical trials
[15] = this study, carboplatin pre-treatment
[16] = final population PK model, inter-individual variability
[17] = n = 4, ref unpublished findings from the drug sponsor (NCT00516724)
[18] = ref unpublished findings from the drug sponsor

## N.N.O=C([O-])C1(C(=O)[O-])CCC1.[Pt+2] [carboplatin]
[1]
  terminal plasma half-life: 2 to 3 h
[1]; human, in vivo
  plasma protein binding: not plasma protein bound
[1]; patients with normal renal function (CLcr > 60 mL/min)
  dose excreted within 12 h: 65%

## O=C(c1cc(Cc2n[nH]c(=O)c3ccccc23)ccc1F)N1CCN(C(=O)C2CC2)CC1 [olaparib]
[2]; [10]
  clearance: 7.0 to 10.8 L/h
  volume of distribution: 107 to 210 L
[2]; [11]
  AUC: 10000 to 70000 ng·h/mL
  CMax: 1 to 6.4 µg/mL
[2]
  CL/F, other literature value: 4.6 L/h
  V/F, other literature value: 40.3 L
[2]; elimination rate calculated over a 72-h period
  half-life: 12 h
[2]; [12]
  increase in olaparib AUC in mild renal impairment: 1.2 fold
  increase in olaparib CMAX in mild renal impairment: 1.5 fold
[2]; [13]
  apparent plasma CL/F: 8.6 (±7.1) L/h
  apparent volume of distribution at steady-state (Vss/F): 167 (±196) L
[2]; tablet dose of 200 mg
  AUC mean: 43000 ng·h/mL
  CL/F mean: 7.95 L/h
  CMAX mean: 7 µg/mL
  V/F mean: 146 L
[3]; olaparib capsules combined with carboplatin, likely due to carboplatin
  patients having hematologic toxicity: 82%
[3]; [14]
  grade 1–2 fatigue: ~30%
  grade 1–2 nausea: ~32%
  grade 1–2 vomiting: ~20%
[4]; human, plasma, oral, 200 mg
  half-life: ~3 h
[4]; this study, Group A C1D1, before carboplatin
  V/F, first 200 mg dose of olaparib alone: 31.1 L
[4]; [15]
  decrease in olaparib AUCLAST in presence of carboplatin: 1.3 fold
  decrease in olaparib CMAX in presence of carboplatin: 1.2 fold
blood/PMBCs
  intracellular olaparib when blood/PMBCs were pretreated with carboplatin: greater intracellular olaparib
[5]
  change in olaparib plasma protein binding by carboplatin: no change in olaparib plasma protein binding
[6]; 100 mg olaparib tablets BID with cisplatin and gemcitabine, 23 advanced cancer patients
  CL/F point estimate, previous population PK model: 6.48 L/h and 6.5 L/h
[6]; 100 mg olaparib tablets BID with cisplatin and gemcitabine, 23 patients
  V/F point estimate, previous population PK model: 38.7 L
[6]; 100 mg olaparib tablets BID with cisplatin and gemcitabine
  half-life of first dose olaparib, previous population PK model: 4 h
[6]; single compartment absorption model
  absorption rate (Ka), previous population PK model: 2 h⁻¹
[7]
  CL/F NCA estimate: 6.08 L/h
[8]; bootstrap, 1000 replicates
  IIV CL/F bootstrap estimate (%RSE): 57.0% (7.06%) %CV
  IIV Tlag bootstrap estimate (%RSE): 70.7% (19.6%) %CV
  IIV V/F bootstrap estimate (%RSE): 38.4% (9.78%) %CV
[8]; final covariate model
  BSV on the CL/F parameter explained by carboplatin covariate: ~2%
[8]; final population PK model, inter-individual (between-subject) variability
  IIV CL/F point estimate (%RSE): 55.0% (7.98%) %CV
[8]; [16]
  IIV Tlag point estimate (%RSE): 87.1% (13.5%) %CV
  IIV V/F point estimate (%RSE): 37.3% (9.23%) %CV
[8]; in vivo
  change in volume of distribution relative to carboplatin pretreatment: No change in volume of distribution
[8]; population model
  correlation (r) of creatinine clearance with olaparib clearance: < 0.005
[9]; [17]
  lower olaparib CMAX with carboplatin pre-exposure: 14.8%
  lower steady state olaparib AUC with carboplatin pre-exposure: 11.0%
[9]; [18]
  lower olaparib AUC with carboplatin pre-exposure: 14%
  lower olaparib CMAX with carboplatin pre-exposure: 17%
